The source of these data is publication PMC9472817, “Structural and functional characterisation of a stable, broad-specificity multimeric sialidase from the oral pathogen Tannerella forsythia” (Biochemical Journal, 2022).

Read-outs that look alike come from different tables or passages of the source.

Assay [1] concerns the target T1, NanH-D237A (Tannerella forsythia, UniProt G8UIQ1, D224A).
T1 construct: gene BFO_2207; C-terminally hexahistidine-tagged NanH
T1 sequence (G8UIQ1 21-539 D224A): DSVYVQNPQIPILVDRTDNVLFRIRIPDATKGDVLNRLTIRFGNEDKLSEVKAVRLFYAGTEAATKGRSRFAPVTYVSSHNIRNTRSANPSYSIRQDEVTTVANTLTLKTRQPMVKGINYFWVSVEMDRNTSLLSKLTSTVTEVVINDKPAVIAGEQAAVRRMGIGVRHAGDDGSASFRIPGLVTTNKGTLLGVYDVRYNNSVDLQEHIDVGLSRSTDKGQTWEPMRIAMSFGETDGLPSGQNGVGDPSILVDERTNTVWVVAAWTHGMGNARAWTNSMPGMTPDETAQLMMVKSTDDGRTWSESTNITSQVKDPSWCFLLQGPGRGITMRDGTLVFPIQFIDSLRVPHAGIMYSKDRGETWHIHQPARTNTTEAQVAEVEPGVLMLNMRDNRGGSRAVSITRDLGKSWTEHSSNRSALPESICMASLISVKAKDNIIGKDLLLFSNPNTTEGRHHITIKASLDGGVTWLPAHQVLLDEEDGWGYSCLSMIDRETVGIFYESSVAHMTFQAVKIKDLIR
The assay is described as follows: crystal structure ([…] soak, […] Å) and tryptophan fluorescence quenching. The class given is binding.

Assay [2] addresses T1, NanH-D237A. The description is as above. It is filed as binding. The source holds these as a separate data set.

By Kd is commonly meant the concentration at which binding is half-saturated. In turn, `CC(=O)N[C@H]1[C@H]([C@H](O)[C@H](O)CO)O[C@@](OC[C@H]2O[C@@H](O[C@H]3[C@H](O)[C@@H](O)C(O)O[C@@H]3CO)[C@H](O)[C@@H](O)[C@H]2O)(C(=O)O)C[C@@H]1O` (some centres unmarked) [6-SL] had a dissociation constant (Kd) on NanH-D237A [1] of 133 ± 48.3 µM.

As for `CC(=O)N[C@H]1[C@H]([C@H](O)[C@H](O)CO)O[C@@](O[C@H]2[C@@H](O)[C@@H](CO)O[C@@H](O[C@H]3[C@H](O)[C@@H](O)C(O)O[C@@H]3CO)[C@@H]2O)(C(=O)O)C[C@@H]1O` (some centres unmarked) [3-SL], the affinity on NanH-D237A [2], expressed as Kd, was 305 ± 91.5 µM.
